Data set [1] deals with Mus musculus. The experiment in a line: Toxicity in human MIAPaCa2 cells xenografted in Swiss mouse assessed as incidence of weight loss at 3 mg/kg, ip dosed three times per week. The format is organism-based, MIA PaCa-2. The arrangement: dose 3 mg/kg, route intraperitoneal. The conditions noted are these: in vivo.
Data set [2] deals with Mus musculus. Kind of data set: Reduction in HSP90 protein expression in human MIAPaCa2 cells xenografted Swiss mouse tumor at 3 mg/kg, ip dosed three times per week by immunoblot. The format is functional, MIA PaCa-2. The conditions noted are these: route intraperitoneal. Also on record: scale not given: the % may be the effect or the level left.
Data set [3] relates to MIA PaCa-2. The experiment in a line: Effect on PARP protein expression human MIAPaCa2 cells at 0.1 uM to 1 uM incubated for 8 hrs by Western blot. The format is functional, cell-based.
In data set [4] the test system is Nucleic Acid. Kind of data set: Stabilization of HSP90b DNA G-quadruplex assessed as change in melting temperature at 1 uM by FRET. It is filed as nucleic-acid assay.
Data set [5] has as its system Mus musculus. The experiment in a line: Reduction in k-Ras protein expression in human MIAPaCa2 cells xenografted Swiss mouse tumor at 3 mg/kg, ip dosed three times per week by immunoblot. The conditions noted are these: MIA PaCa-2. The format is functional, organism-based. The arrangement: dose 3 mg/kg.
For data set [6], the system named is Mus musculus. The experiment in a line: Inhibition of telomerase activity in human MIAPaCa2 cells xenografted Swiss mouse at 3 mg/kg, ip dosed for 25 days by TRAP-LIG assay relative to untreated control. The format is functional. The conditions noted are these: MIA PaCa-2, ip, 600 h, route intraperitoneal.
Data set [7] relates to Nucleic Acid. Kind of data set: Stabilization of HSP90b DNA G-quadruplex assessed as change in melting temperature at 0.5 uM by FRET. It is filed as nucleic-acid assay.
The subject of data set [8] is Mus musculus. Kind of data set: Reduction in hTERT protein expression in human MIAPaCa2 cells xenografted Swiss mouse tumor at 3 mg/kg, ip dosed three times per week by immunoblot. The format is functional, MIA PaCa-2. The arrangement: scale not given: the % may be the effect or the level left. The conditions noted are these: route intraperitoneal.
The subject of data set [9] is Nucleic Acid. Kind of data set: Stabilization of HSP90a DNA G-quadruplex assessed as change in melting temperature at 0.5 uM by FRET. The format is nucleic-acid assay.
The test system of data set [10] is Mus musculus. Kind of data set: Reduction in Bcl-2 protein expression in human MIAPaCa2 cells xenografted Swiss mouse tumor at 3 mg/kg, ip dosed three times per week by immunoblot. The conditions noted are these: route intraperitoneal. It is filed as functional, MIA PaCa-2. The arrangement: scale not given: the % may be the effect or the level left.
In data set [11] the test system is Mus musculus. The experiment in a line: Biodistribution in human MIAPaCa2 cells xenografted Swiss mouse tumor at 3 mg/kg, ip dosed three times per week measured 48 hrs after last 4 cycles of compound dosing. It is filed as ADME, organism-based, Neoplasm, MIA PaCa-2. The arrangement: dose 3 mg/kg, route intraperitoneal. The conditions noted are these: in vivo.

The next data set deals with Pancreas. Kind of data set: Biodistribution in human MIAPaCa2 cells xenografted Swiss mouse Pancreas at 3 mg/kg, ip dosed three times per week measured 48 hrs after last 4 cycles of compound dosing. It is filed as ADME, organism-based, MIA PaCa-2. The conditions noted are these: in vivo. The arrangement: dose 3 mg/kg, route intraperitoneal.
Data set [12] concerns MIA PaCa-2. The experiment in a line: Antitumor activity against human MIAPaCa2 cells xenografted in Swiss mouse assessed as reduction tumor volume at 3 mg/kg, ip dosed three times per week. The conditions noted are these: route intraperitoneal. Also on record: scale not given: the % may be the effect or the level left. It is filed as functional.
Data set [13] is described as follows: Toxicity in human MIAPaCa2 cells xenografted in Swiss mouse assessed as maximum tolerated dosed intraperitoneally three times per week. The conditions noted are these: in vivo, ip. The format is organism-based, MIA PaCa-2.
Data set [14] deals with MIA PaCa-2. Kind of data set: Effect on gammaH2AX protein expression human MIAPaCa2 cells at 0.1 uM to 1 uM incubated for 8 hrs by Western blot. The format is functional, cell-based.
Data set [15] has as its system Nucleic Acid. The experiment in a line: Stabilization of HSP90a DNA G-quadruplex assessed as change in melting temperature at 1 uM by FRET. The format is nucleic-acid assay.

Experimental findings from ChEMBL document CHEMBL2157890, “Targeting pancreatic cancer with a G-quadruplex ligand” (Bioorg Med Chem, 2011) are described below.

Activity calls are given as the source filed them. No cut-off for these calls is given here.

Consider `CN1CCN(CCCNc2cc3c4c(c(NCCCN5CCN(C)CC5)cc5c4c2C(=O)N(CCCN2CCN(C)CC2)C5=O)C(=O)N(CCCN2CCN(C)CC2)C3=O)CC1`, for which the Activity entry is “Non-toxic” in the data set with Mus musculus [1]; 30% in the data set with Mus musculus [2]; 30% with Mus musculus [8]; 10% in the data set on Mus musculus [10]; 50% in the data set with MIA PaCa-2 [12]. Also, the outcome with MIA PaCa-2 [3], with Mus musculus [5] and in the data set on MIA PaCa-2 [14] was inactive. The ΔTm in the data set on Nucleic Acid [4] turned out to be 32 °C; in the data set with Nucleic Acid [7], 31 °C; with Nucleic Acid [9] it was 34.9 °C; in the data set with Nucleic Acid [15] it was 36.3 °C. The inhibition in vivo at 3 mg/kg with Mus musculus [6] was 50%. For the same compound, the Drug uptake entry in the data set on Mus musculus [11] and in the data set with Pancreas was “Active” throughout. Moreover, in [13], the MTD is 15 mg/kg.
